Target: T1, Class 1 phosphodiesterase PDEB1 (Trypanosoma brucei) (UniProt Q8WQX9)
T1 sequence (whole entry): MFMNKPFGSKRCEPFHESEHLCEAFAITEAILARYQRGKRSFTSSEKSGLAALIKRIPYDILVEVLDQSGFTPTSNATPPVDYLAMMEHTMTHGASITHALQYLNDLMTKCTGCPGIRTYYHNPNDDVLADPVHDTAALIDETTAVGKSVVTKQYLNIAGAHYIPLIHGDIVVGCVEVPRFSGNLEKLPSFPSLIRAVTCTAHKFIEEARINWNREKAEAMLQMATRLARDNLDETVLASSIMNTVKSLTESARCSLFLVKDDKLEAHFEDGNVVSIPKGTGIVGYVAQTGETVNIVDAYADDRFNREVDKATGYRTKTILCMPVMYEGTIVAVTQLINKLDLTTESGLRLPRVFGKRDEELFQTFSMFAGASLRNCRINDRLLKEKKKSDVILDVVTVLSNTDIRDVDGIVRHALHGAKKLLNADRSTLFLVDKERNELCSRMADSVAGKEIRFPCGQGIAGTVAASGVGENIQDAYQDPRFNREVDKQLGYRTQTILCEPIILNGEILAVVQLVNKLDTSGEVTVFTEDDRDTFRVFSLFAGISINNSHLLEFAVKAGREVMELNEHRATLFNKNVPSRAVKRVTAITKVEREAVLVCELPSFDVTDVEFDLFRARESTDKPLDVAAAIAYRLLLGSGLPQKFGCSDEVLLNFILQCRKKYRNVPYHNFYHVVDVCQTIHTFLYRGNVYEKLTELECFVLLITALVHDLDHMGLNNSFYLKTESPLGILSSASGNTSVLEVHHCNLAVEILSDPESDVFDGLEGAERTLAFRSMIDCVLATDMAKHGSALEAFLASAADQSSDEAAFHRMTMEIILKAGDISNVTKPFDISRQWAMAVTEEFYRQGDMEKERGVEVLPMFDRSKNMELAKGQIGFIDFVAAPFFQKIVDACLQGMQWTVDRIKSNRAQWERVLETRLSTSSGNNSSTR
Experiment: Inhibition of Trypanosoma brucei PDEB1 using cAMP as substrate at 10 uM preincubated for 10 mins prior substrate addition by spectrophotometry

Point of comparison: `CC(=O)NCC1c2[nH]c3ccccc3c2C[C@@H]2C(=O)N(C)CC(=O)N12` (stereo partly drawn), inhibition 0%. Against it:
- CN1CC(=O)N2C(CNCc3cccnc3)c3[nH]c4ccccc4c3C[C@@H]2C1=O (stereo partly drawn) — higher, 6.09%
- CN1CC(=O)N2[C@H](c3ccc4c(c3)OCO4)c3[nH]c4ccc(Br)cc4c3C[C@@H]2C1=O — higher, 11.8%
- NC(=O)[C@H]1Cc2c([nH]c3ccccc23)C(c2cccnc2)N1 (stereo partly drawn) — higher, 22.6%
- CN1CC(=O)N2[C@@H](c3ccc4c(c3)OCO4)c3c(c4ccccc4n3C)C[C@@H]2C1=O — higher, 19.7%
- CN1CC(=O)N2[C@H](c3ccc4c(c3)OCO4)c3c(c4ccccc4n3C)C[C@@H]2C1=O — higher, 6.9%
- CN1CC(=O)N2[C@@H](c3ccc4c(c3)OCO4)c3[nH]c4ccc(-c5ccn[nH]5)cc4c3C[C@@H]2C1=O — higher, 71.8%
- CN1CC(=O)N2[C@@H](c3ccc4c(c3)OCO4)c3[nH]c4ccc(Br)cc4c3C[C@@H]2C1=O — higher, 11.6%
- CN1CC(=O)N2[C@@H](c3ccc4c(c3)OCO4)c3[nH]c4ccccc4c3C[C@@H]2C1=O — higher, 38.8%
- CN1CC(=O)N2C(CNC(=O)OCc3ccccc3)c3[nH]c4ccccc4c3C[C@@H]2C1=O (stereo partly drawn) — higher, 21.2%
- Cc1n[nH]cc1C(=O)NCC1c2[nH]c3ccccc3c2C[C@@H]2C(=O)N(C)CC(=O)N12 (stereo partly drawn) — the same, 0%

System: not listed separately
Experiment: Solubility of the compound at higher concentration
Type: physicochemical

With `CN1CC(=O)N2[C@@H](c3ccc4c(c3)OCO4)c3[nH]c4ccc(-c5ccn[nH]5)cc4c3C[C@@H]2C1=O` the solubility was “Insoluble”.

Target: T1, Class 1 phosphodiesterase PDEB1 (Trypanosoma brucei)
Experiment: Inhibition of Trypanosoma brucei PDEB1 using cAMP as substrate at 100 uM preincubated for 10 mins prior substrate addition by spectrophotometry

Point of comparison: `NC(=O)[C@H]1Cc2c([nH]c3ccccc23)[C@@H](c2ccc3c(c2)OCO3)N1`, inhibition 19.5%. Against it:
- CN1CC(=O)N2C(c3cccnc3)c3[nH]c4ccccc4c3C[C@@H]2C1=O (stereo partly drawn) — lower, 9.4%
- CN1CC(=O)N2[C@H](c3ccc4c(c3)OCO4)c3[nH]c4ccccc4c3C[C@@H]2C1=O — lower, 0%
- NC(=O)[C@H]1Cc2c([nH]c3ccccc23)[C@H](c2ccc3c(c2)OCO3)N1 — lower, 0%
- CC1NC(C(N)=O)Cc2c1[nH]c1ccccc21 (stereo not drawn) — lower, 13.3%
- CC(=O)N1CCc2c([nH]c3ccccc23)C1c1ccc2c(c1)OCO2 (stereo not drawn) — lower, 17%

From ChEMBL document CHEMBL2010777, “Synthesis and evaluation of human phosphodiesterases (PDE) 5 inhibitor analogs as trypanosomal PDE inhibitors. Part 2. Tadalafil analogs” (Bioorg Med Chem Lett, 2012)
